PubChem BioAssay (NCI)
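All cell lines were grown in 96-well plates and treated with compound for 48 hours. TGI denotes the concentration required for complete inhibition of growth.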

Key:
Assay in all cases: NCI tumour cell line growth inhibition, 48 h
[1] = test system: 786-0 renal
[2] = test system: A498 renal
[3] = test system: A549 NSCLC
[4] = test system: ACHN renal
[5] = test system: CAKI-1 renal
[6] = test system: CCRF-CEM leukemia
[7] = test system: COLO 205 colon
[8] = test system: DLD-1 colon
[9] = test system: DMS 114 small cell lung
[10] = test system: DMS 273 small cell lung
[11] = test system: EKVX NSCLC
[12] = test system: HCC-2998 colon
[13] = test system: HCT-116 colon
[14] = test system: HCT-15 colon
[15] = test system: HL-60(TB) leukemia
[16] = test system: HOP-18 NSCLC
[17] = test system: HOP-62 NSCLC
[18] = test system: HOP-92 NSCLC
[19] = test system: HT29 colon
[20] = test system: IGROV1 ovarian
[21] = test system: K-562 leukemia
[22] = test system: KM12 colon
[23] = test system: KM20L2 colon
[24] = test system: LXFL 529 NSCLC
[25] = test system: M14 melanoma
[26] = test system: M19-MEL melanoma
[27] = test system: MALME-3M melanoma
[28] = test system: MOLT-4 leukemia
[29] = test system: NCI-H226 lung
[30] = test system: NCI-H23 lung
[31] = test system: NCI-H460 lung
[32] = test system: NCI-H522 lung
[33] = test system: OVCAR-3 ovarian
[34] = test system: OVCAR-4 ovarian
[35] = test system: OVCAR-5 ovarian
[36] = test system: OVCAR-8 ovarian
[37] = test system: RPMI-8226 leukemia
[38] = test system: RXF 393 renal
[39] = test system: RXF-631 renal
[40] = test system: SF-268 CNS
[41] = test system: SF-295 CNS
[42] = test system: SF-539 CNS
[43] = test system: SK-MEL-2 melanoma
[44] = test system: SK-MEL-28 melanoma
[45] = test system: SK-MEL-5 melanoma
[46] = test system: SK-OV-3 ovarian
[47] = test system: SN12C renal
[48] = test system: SNB-19 CNS
[49] = test system: SNB-75 CNS
[50] = test system: SNB-78 CNS
[51] = test system: SR leukemia
[52] = test system: SW-620 colon
[53] = test system: TK-10 renal
[54] = test system: U251 CNS
[55] = test system: UACC-257 melanoma
[56] = test system: UACC-62 melanoma
[57] = test system: UO-31 renal
[58] = test system: XF 498 CNS
[59] = test system: LOX IMVI melanoma
[60] = test system: MCF7 breast
[61] = test system: NCI/ADR-RES ovarian
[62] = test system: P388 leukemia
[63] = test system: SN12K1 renal

Measured: TGI

CC(=O)CC(=O)Nc1ccc(OS(N)(=O)=O)cc1
not listed: [59] | [60] | [61] | [62] | [63]
> 100 µM: all other assays above

CSc1nc2c(ncn2C2OC(CO)C(O)C(O)C2O)c(=O)n1C (stereo not drawn)
not listed: [1] | [4] | [5] | [24] | [25] | [39] | [51] | [53]
> 100 µM: all other assays above
